Values of other authors in patent US20230270709A1, “ANTIVIRAL PHARMACEUTICAL COMPOSITION FOR TOPICAL ADMINISTRATION” (Christian-Albrechts-Universitat Zu Kiel, priority 2020, published 2023).
Structures can show the parent of a compound that is named as a salt.

Legend:
[1] = molecular target: transmembrane protease, serine 2 (TMPRSS2) (Homo sapiens, UniProt O15393); conditions: Zhou et al., Antiviral Research 116 (2015)
[2] = tested on: SARS-CoV; conditions: pathogenic animal model for SARS-CoV infection; Zhou et al. 2015
[3] = tested on: SARS-CoV-2; conditions: Hoffmann et al. 2020

transmembrane protease, serine 2 (TMPRSS2), sequence (O15393 whole entry): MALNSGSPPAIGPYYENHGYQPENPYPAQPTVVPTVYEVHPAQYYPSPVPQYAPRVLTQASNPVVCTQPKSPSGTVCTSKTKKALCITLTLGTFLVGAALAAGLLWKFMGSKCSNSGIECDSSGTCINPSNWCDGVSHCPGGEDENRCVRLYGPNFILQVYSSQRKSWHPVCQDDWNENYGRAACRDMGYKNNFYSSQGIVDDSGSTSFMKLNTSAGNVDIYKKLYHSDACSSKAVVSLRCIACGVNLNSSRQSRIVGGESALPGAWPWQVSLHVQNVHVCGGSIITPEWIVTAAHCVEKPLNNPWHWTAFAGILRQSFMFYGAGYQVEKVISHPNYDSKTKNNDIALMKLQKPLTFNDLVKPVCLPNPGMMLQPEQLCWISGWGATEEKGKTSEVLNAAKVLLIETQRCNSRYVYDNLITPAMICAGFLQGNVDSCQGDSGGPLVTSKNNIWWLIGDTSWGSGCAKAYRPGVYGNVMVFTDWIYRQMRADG

CN(C)C(=O)COC(=O)Cc1ccc(OC(=O)c2ccc(NC(=N)N)cc2)cc1 [camostat]
inhibition of TMPRSS2 [1]: inhibit | antiviral activity in animal model [2]: display antiviral activity

N=C(N)c1ccc2cc(OC(=O)c3ccc(N=C(N)N)cc3)ccc2c1 [nafamostat mesylate]
effect on SARS-CoV-2 infections of lung cells [3]: reduce SARS-CoV-2 infections of lung cells

CN(C)C(=O)COC(=O)Cc1ccc(OC(=O)c2ccc(NC(=N)N)cc2)cc1 [camostat mesylate]
effect on SARS-CoV-2 infections of lung cells [3]: reduce SARS-CoV-2 infections of lung cells
